Common to all, as to assay type: cell-based
One experiment deals with SHG44. The experiment can be described thus: Tumor cell line inhibition, SHG44.
A further experiment relates to A549. The experiment can be described thus: Tumor cell line inhibition, A549.
The test system of the next experiment is PC-3M. The experiment can be described thus: Tumor cell line inhibition, PC-3M. Particulars: PC-3M tumor cell line.

This note sets out measurements from patent US8664244B2, “Compounds as c-Met kinase inhibitors” (Advenchen Pharmaceuticals, LLC, priority 2010, dated 2014).

Read-outs that look alike come from different tables or passages of the source.

In general, IC50 refers to the concentration at which inhibition is half-maximal. With `COc1ccc(COC(=O)NC2(COc3cc4nccc(Oc5ccc(NC(=O)C6(C(=O)Nc7ccc(F)cc7)CC6)cc5F)c4cc3OC)CC2)cc1` [Example 1, 4-methoxybenzyl-1-((4-(2-fluoro-4-(1-(4-fluorophenylcarbamoyl)cyclopropanecarboxamido)-phenoxy)-6-methoxyquinolin-7-yloxy)methyl)cyclopropylcarbamate], the IC50 in the experiment on SHG44 was 5.74 µM; in the experiment on A549, 3.32 µM; with PC-3M, 35.6 µM.

Take `COc1cc2c(Oc3ccc(N(C(=O)C4(C(N)=O)CC4)c4ccc(F)cc4)cc3F)ccnc2cc1OCC1(NC2CCOCC2)CC1` [Example 3, N-(3-fluoro-4-(6-methoxy-7-((1-(tetrahydro-2H-pyran-4-ylamino)cyclopropyl)methoxy)quinolin-4-yloxy)phenyl)-N-(4-fluorophenyl)cyclopropane-1,1-dicarboxamide]: the figures for the IC50 in the experiment on SHG44 (SHG-44), in the experiment on A549 (Homo sapiens) and with PC-3M (Homo sapiens) were 0.199 µM, 0.0407 µM and 4.89 µM, respectively.

Regarding `COc1ccc(COC(=O)NC2(COc3cc4nccc(Oc5ccc(NC(=O)C6(C(=O)Nc7ccc(F)c(F)c7)CC6)c(F)c5)c4cc3OC)CC2)cc1` [Example 7, 4-methoxybenzyl 1-((4-(4-(1-(3,4-difluorophenylcarbamoyl)cyclopropanecarboxamido)-3-fluoro-phenoxy)-6-methoxyquinolin-7-yloxy)methyl)cyclopropylcarbamate], the 50% inhibitory concentration (IC50) with SHG44 (SHG-44) came to 39.1 µM; with A549 (Homo sapiens) it was 36 µM; in the experiment with PC-3M (Homo sapiens), 51 µM.

As for `COc1cc2c(Oc3ccc(N(C(=O)C4(C(N)=O)CC4)c4ccc(F)c(F)c4)c(F)c3)ccnc2cc1OCC1(NC2CCOCC2)CC1` [Example 9, N-(3,4-difluorophenyl)-N-(2-fluoro-4-(6-methoxy-7-((1-(tetrahydro-2H-pyran-4-ylamino)-cyclopropyl)methoxy)quinolin-4-yloxy)phenyl)cyclopropane-1,1-dicarboxamide], the concentration for half-maximal inhibition (IC50) with SHG44 (SHG-44) was 2.18 µM; in the experiment on A549 (Homo sapiens), 2.22 µM; in the experiment on PC-3M (Homo sapiens), 6.02 µM.

Take `COc1cc2c(Oc3ccc(N(C(=O)C4(C(N)=O)CC4)c4ccc(F)c(F)c4)c(F)c3)ccnc2cc1OCC1(NCC2CC2)CC1` [Example 11, N-(4-(7-((1-(cyclopropylmethylamino)cyclopropyl)methoxy)-6-methoxyquinolin-4-yloxy)-2-fluorophenyl)-N-(3,4-difluorophenyl)cyclopropane-1,1-dicarboxamide]: the results for the IC50 with SHG44 (SHG-44), with A549 (Homo sapiens) and in the experiment with PC-3M (Homo sapiens) were 0.589 µM, 0.0659 µM and 16.1 µM, respectively.

Take `COc1ccc(COC(=O)NC2(COc3cc4nccc(Oc5ccc(NC(=O)C6(C(=O)Nc7ccccc7)CC6)cc5F)c4cc3OC)CC2)cc1` [Example 13, 4-methoxybenzyl 1-((4-(4-(1-(phenylcarbamoyl)cyclopropanecarboxamido)-2-fluoro-phenoxy)-6-methoxyquinolin-7-yloxy)methyl)cyclopropylcarbamate]: the IC50 was 26 µM with SHG44 (SHG-44), 45.4 µM in the experiment with A549 (Homo sapiens) and 53.2 µM in the experiment on PC-3M (Homo sapiens).

For `COc1cc2c(Oc3ccc(N(C(=O)C4(C(N)=O)CC4)c4ccccc4)c(F)c3)ccnc2cc1OCC1(N)CC1` [Example 14, N-(4-(7-((1-aminocyclopropyl)methoxy)-6-methoxyquinolin-4-yloxy)-2-fluorophenyl)-N-(phenyl)cyclopropane-1,1-dicarboxamide], the IC50 was 1.41 µM in the experiment with SHG44 (SHG-44), 0.549 µM with A549 (Homo sapiens) and 12.5 µM in the experiment on PC-3M (Homo sapiens).
